Values belong to the molecule of their own block, whether it stands above or below them.
How the values were obtained:
[1] = test system: T2 cells pulsed with peptide; assay: Chromium-51 release cytotoxicity assay with peptide-stimulated T cells; format: cell-based, human; details: for killing of T2 cells pulsed with kinase mutant sequence peptides: T cells generated by several stimulations with the peptide, not with control peptide or no peptide; for killing of cells expressing the native peptide: T cell lines after several stimulations with the heteroclitic peptide; for killing of T2 cells pulsed with the heteroclitic peptide: T cell lines after several stimulations, no lysis of T2 without peptide or with control peptide
Experimental: T lymphocytes were isolated from the same donors by use of negative selection by depletion with an anti-CD11b, anti-CD56 and CD19 MAb (Miltenyi, CA). A total of 1×10^6 pure T lymphocytes were cultured with 1×10^5 autologous DC in RPMI 1640 medium supplemented with 5% heat-inactivated human autologous plasma with bcr-abl synthetic peptides at a concentration of 10 μg/mL and β2 microglobulin at 2 μg/ml in 24-well plates in the presence of 5-10 ng/mL recombinant human IL-7 (Genzyme) and 0.1 ng/ml IL-12. After culture for 3 days 20 U/ml of IL-2 was added. After 10 days, 1×10^6 cells were stimulated again by adding 2×10^5 autologous, magnetically isolated CD14^+ monocytes together with 10 ng/ml of IL-7 and 20 U/ml IL-2 and peptide at a concentration of […]. In some cases, as indicated, after culture for another 7 days, the cells were stimulated a third time, in the same manner. After the second or third stimulation, CD8 T cells were magnetically isolated and cytotoxicity and gamma-IFN (interferon) secretion of these cells was then examined.
The presence of specific CTLs was measured in a standard 4 h-chromium release assay as follows. 4×10^6 targets were labeled with 300 μCi of Na2 ^51CrO+ (NEN Life Science Products, Inc. Boston, Mass.) for 1 hour at 37° C. After washing, cells at 2×10^6/ml concentration were incubated with or without synthetic peptides at a concentration of 10 μg/ml for 2 h at 20° C. in presence of β2 microglobulin at 3 μg/ml. After washing by centrifugation, target cells were resuspended in complete media at 5×10^4 cells per ml and plated in a 96 well U-bottom plate (Becton Dickinson®, NY) at 5×10^3 cells per well with effector cells at effector to target (E/T) ratios ranging from 100:1 to 10:1. Plates were incubated for 5 hours at 37° C. in 5% CO2. Supernatant fluids were harvested and radioactivity was measured -in a gamma counter. Percent specific lysis was determined from the following formula: 100× [(experimental release−spontaneous release)/(maximum release−spontaneous release)]. Maximum release was determined by lysis of targets in 2.5% Triton X-100.
In order to determine whether the in vitro-generated T cells were capable of cytolysis, T cell lines obtained after several stimulations with p210C and b2a2A3 were assayed by chromium-51 release assays using peptide pulsed target cell lines.

[2] = test system: T cells from HLA A0201 donors challenged with peptide-pulsed T2 cells; assay: Gamma interferon ELISPOT of T cells after in vitro stimulation with peptide; format: cell-based, human; details: for immune response as gamma-IFN secretion by CD3+ T cells / immune response (IFN-gamma secretion, ELISPOT) / recognition of the native sequence by T cells elicited with the peptide: healthy HLA A0201 donors; for immune response as gamma-IFN secretion by CD3+ T cells: b2a2-derived peptides, FIG. 4; for IFN-γ production (ELISPOT) / heteroclitic response (ELISPOT): CD3+ T cells from HLA A0201 donors; for IFN-γ production (ELISPOT): imatinib resistance-associated peptides, two or three stimulations; for heteroclitic response (ELISPOT): FIGS. 8 and 9; for immune response (IFN-gamma secretion, ELISPOT): second or third round of peptide stimulation, peptide-pulsed T2 targets; for recognition of the native sequence by T cells elicited with the peptide: T2 pulsed with native peptide
[3] = target: HLA A0201 (Homo sapiens, UniProt P04439, D140Y/D185E/D98H/E176V/E277Q/G131W/G231S/I119V/I121R/I166T/I218V/L300P/L318F/N151K/N90K/P208A/P217A/Q86G/Q94H/R138H/R169H/T345S); assay: BIMAS predicted score for binding to HLA A0201; details: analogue versus native CMLA2
Experimental: Peptides with potential CTL epitopes can be predicted by means of a peptide library-based scoring system for MHC class I-binding peptides. AA sequences of the human b3a2 and b2a2 fusion proteins were scanned for peptides with potential binding capacity for HLA A0201, a subtype encompassing 95% of the HLA-A02 allele. HLA-A0201 is expressed in about 40% of the Caucasian population.
Substitutions were determined using the software of the Bioinformatics & Molecular Analysis Section (National Institutes of Health, Washington, D.C.) (Parker K C, et al. J Immunol 1994;152(1):163-75; available at http://bimas.dcrt.nih.gov/cgi-bin/molbio/ken_parker_comboform), which ranks 9-mer or 10-mer peptides on a predicted half life dissociation coefficient from HLA class I molecules. Several analogue peptides were designed whereby one or both anchor amino acids or additional amino acids adjacent to anchor amino acids were modified. […] All the native peptides were predicted to have a half life of less than one minute. Most substitutions affected the primary or secondary anchor motifs (leucine in position 2 or valine in position 9 or 6) but in some cases, a tyrosine was substituted in position 1. […] Also depicted in Table 1 are the predicted half lives according to another software program, […] (Rammensee H G, et al., Immunogenetics 1995; 41(4): 178-228; available at http://syfpeithi.bmi-heidelberg.com).

[4] = target: T1, HLA A0201 molecules (Homo sapiens, UniProt P04439, D140Y/D185E/D98H/E176V/E277Q/G131W/G231S/I119V/I121R/I166T/I218V/L300P/L318F/N151K/N90K/P208A/P217A/Q86G/Q94H/R138H/R169H/T345S); assay: T2 assay for peptide binding to HLA A0201 molecules; details: T2 cells, FIG. 1
T1 construct: endogenous in cells; host or cells: T2 (174xCEM.T2) human cell line
Experimental: (§1) T2 cells (TAP-, HLA-A0201^+) were incubated overnight at 27° C. at a concentration of 1×10^6 cells/ml in FCS-free RPMI medium supplemented with 5 μg/ml human β2microglobulin (Sigma, St Louis, Mo.) in the absence (negative control) or presence of either a positive reference tyrosinase peptide or test peptides at various final concentrations (50, 10, 1, and 0.1 μg/ml). Following a 4-hour incubation with 5 μg/ml brefeldin A (Sigma), T2 cells were labeled for 30 minutes at 4° C. with a saturating concentration of anti-HLA-A2.1 (BB7.2) monoclonal antibody (mAb), then washed twice. The cells were then incubated for 30 minutes at 4° C. with a saturating concentration of FITC-conjugated goat IgG F(ab′)2 anti-mouse Ig (Caltag, South San Francisco, Calif.), washed twice, fixed in PBS/1% paraformaldehyde and analyzed using a FACS Calibur® cytofluorometer (Becton Dickinson, Immunocytometry systems, San Jose, Calif.).
The mean intensity of fluorescence (MIF) observed for each peptide concentration (after dividing of the MIF observed without peptide) was used as an estimate of peptide binding and expressed as a fluorescence index. Stabilization assays were performed similarly. Following initial evaluation of peptide binding at time 0, cells were washed in RPMI complete medium to remove free peptides and incubated in the continuous presence of 0.5 pg/ml brefeldin-A for 2, 4, 6 or 8 hours. […]

[5] = target: T2, HLA-A0201 molecule on T2 cells (TAP-, HLA-A0201+) (human); assay: T2 binding and stabilization assay, flow cytometry with BB7.2
T2 construct: Empty, thermolabile HLA-A0201 on live T2 cells; also called HLA-A2.1
Experimental: as §1, with “HLA-A0201⁺)” for “HLA-A0201^+)”, “1×10⁶” for “1×10^6”, “β₂microglobulin” for “β2microglobulin”
The mean intensity of fluorescence (MIF) observed for each peptide concentration (after dividing of the MIF observed without peptide) was used as an estimate of peptide binding and expressed as a fluorescence index. Stabilization assays were performed similarly. Following initial evaluation of peptide binding at time 0, cells were washed in RPMI complete medium to remove free peptides and incubated in the continuous presence of 0.5 pg/ml brefeldin-A for 2, 4, 6 or 8 hours.
For peptides to be immunogenic, in an MHC class I-restricted context, they require the capacity to bind and stabilize MHC class I molecules on the live cell surface. Since the computer prediction models above have 60-80% predictive accuracy, direct measurement of the strength of the interaction between the peptides and the HLA-A0201 molecule was performed, with a conventional binding and stabilization assay that uses the antigen-transporting deficient (TAP2 negative) HLA-A0201 human T2 cells.

[6] = target: T2, HLA-A0201 molecule on T2 cells (TAP-, …); assay: T2 assay, referred to in the ELISPOT example

Molecule: IIIEFMTYV (listed as Homo sapiens) [T3A2]
killing of T2 cells pulsed with kinase mutant sequence peptides [1]: able to kill T2 cells pulsed with specific kinase mutant sequence peptides

Molecule: YLINKVEAL (listed as Homo sapiens) [b2a2 A5]
immune response as gamma-IFN secretion by CD3+ T cells [2]: significant immune respose

Molecule: KLGGGQYGV (listed as Homo sapiens) [V2A1]
IFN-γ production (ELISPOT) [2]: greater IFN-γ was produced following a third stimulation

Molecule: KLGGGQFGV (listed as Homo sapiens) [V2A3]
heteroclitic response (ELISPOT) [2]: stimulated heteroclitic responses

Molecule: KQSSKALQV (listed as Homo sapiens) [p210A]
immune response (IFN-gamma secretion, ELISPOT) [2]: no immune response

Molecule: YLGGGQFGV (listed as Homo sapiens) [V2A2]
IFN-γ production (ELISPOT) [2]: greater IFN-γ production following a second stimulation
recognition of the native sequence by T cells elicited with the peptide [2]: recognized native sequences

Molecule: KVYEGVWKV (listed as Homo sapiens) [K2A3]
heteroclitic response (ELISPOT) [2]: stimulated heteroclitic responses
killing of T2 cells pulsed with kinase mutant sequence peptides [1]: able to kill T2 cells pulsed with specific kinase mutant sequence peptides

Molecule: YLFKQSSKV (listed as Homo sapiens) [p210E]
immune response (IFN-gamma secretion, ELISPOT) [2]: produced an immune response in some donors tested

Molecule: YLINKEEAL (listed as Homo sapiens) [b2a2 A3]
recognition of the native sequence by T cells elicited with the peptide [2]: recognized the native sequence as well
immune response as gamma-IFN secretion by CD3+ T cells [2]: significant immune respose
killing of cells expressing the native peptide [1]: able to recognize and kill cells expressing the native peptide
killing of T2 cells pulsed with the heteroclitic peptide [1]: able to kill T2 cells pulsed with the heteroclitic peptides

Molecule: KLLQRPVAV (listed as Homo sapiens) [p210C]
immune responses in CML patients ([2]; 4 patients with chronic phase CML assayed): observed in two of the CML patients
frequency of CD8+ cells recognizing T2 pulsed with the synthetic peptide ([2]; CML patient, two rounds of stimulation): ~400 spot-forming cells (SCF) per 1×10^5 cells
recognition of the native sequence by T cells elicited with the peptide [2]: able to recognize their respective native sequences
immune response (IFN-gamma secretion, ELISPOT) [2]: most consistent and significant immune-responses
killing of cells expressing the native peptide [1]: able to recognize and kill cells expressing the native peptide
killing of T2 cells pulsed with the heteroclitic peptide [1]: able to kill T2 cells pulsed with the heteroclitic peptides

increase of BIMAS prediction [3]: 700 fold
binding to HLA A0201 in the T2 assay [4]: high avidity
Molecule: YLKALQRPV (listed as Homo sapiens) [p210F]
recognition of the native sequence by T cells elicited with the peptide [2]: able to recognize their respective native sequences
immune response (IFN-gamma secretion, ELISPOT) [2]: most consistent and significant immune-responses

Molecule: TLFKQSSKV (listed as Homo sapiens) [p210D]
immune response (IFN-gamma secretion, ELISPOT) [2]: produced an immune response in some donors tested

Molecule: KLSSKALQV (listed as Homo sapiens) [p210B]
immune response (IFN-gamma secretion, ELISPOT) [2]: no immune response

Molecule: YLINKEEAV (listed as Homo sapiens) [b2a2 A4]
immune response as gamma-IFN secretion by CD3+ T cells [2]: significant immune respose

Molecule: YIIIEFMTYV (listed as Homo sapiens) [T3B2]
heteroclitic response (ELISPOT) [2]: stimulated heteroclitic responses

binding to HLA A0201 in the T2 assay [4]: weak MHC binder
Molecule: SSKALQRPV (listed as Homo sapiens) [CMLA2, native b3a2 breakpoint peptide, previously described]

binding result [5]: binds
Molecule: YLINKEEAL [b2a2 A3 (analogue)]

binding result [5]: binds
Molecule: YLINKEEAV [b2a2 A4 (analogue)]

binding result [5]: binds
Molecule: YLINKVEAL [b2a2 A5 (analogue)]

binding result [5]: binds
Molecule: KALQRPVAS [p210Cn native]

binding result [6]: binds
Molecule: SSKALQRPV [CMLA2 native]
